The results in this text go back to patent US11357817B2, “Immunoproteasome inhibitor” (The Regents of the University of California, priority 2017, dated 2022).

The subject of experiment [1] is P. falciparum Dd2. Nature of the experiment: P. falciparum Dd2 asexual blood stage SYBR Green I compound sensitivity assay. The conditions noted are these: for Selectivity Index: P. falciparum activity versus HepG2 activity; for IC50: asexual blood stage, 72 hour SYBR green assay. It counts as cell-based, Plasmodium falciparum. On the procedure: P. falciparum Dd2 strain parasites were cultured under standard conditions (31), using RPMI media supplemented with 0.05 mg/ml gentamycin, 0.014 mg/mL hypoxanthine (prepared fresh), 38.4 mM HEPES, 0.2% Sodium Bicarbonate, 3.4 mM Sodium Hydroxide, 0.05% O+ Human Serum (Denatured at […] for 40 min and From Interstate Blood Bank, Memphis, Tenn.) and 0.0025% Albumax). Human O+ whole blood was obtained from TSRI blood bank (La Jolla, Calif.). Leukocyte-free erythrocytes are stored at 50% hematocrit in RPMI-1640 screening media (as above, but without O+ human serum and with 2× albumax concentration) at 4° C. for one to three weeks before experimental use. Cultures were monitored every one to two days via Giemsa-stained thin smears.
Compound susceptibility was measured using the malaria SYBR Green I-based fluorescence assay (32). Asynchronous P. falciparum parasites (Dd2 strain) were cultured in standard conditions before being plated for the assays. Each compound was tested over 72 hours in technical duplicates on a twelve-point concentration curve prepared by three-fold dilution from 6.7 μM to 0.11 nM. At least three independent experiments were carried out for IC50 determination. Artemisinin and chloroquine were used as controls. IC50 values were obtained using normalized fluorescence intensity from SYBR green I and analyzed via non-linear variable slope four-parameter regression curve-fitting model in Prism 6 (GraphPad Software Inc).

In experiment [2] the test system is HepG2 cells. In words: HepG2 cytotoxicity assay. The experiment is classed as cell-based. The conditions noted are these: Homo sapiens. On the procedure: The liver-stage and HepG2 toxicity assays were performed as previously reported (35). Briefly, HepG2-A16-CD81EGFP, human hepatocarcinoma HepG2 cells stably transformed to express the tetraspanin CD81 receptor (36, 37) and thus susceptible to P. berghei infection, were cultured at 37° C. in 5% CO2 in DMEM (Life Technologies, Calif.) supplemented with 10% FBS, 0.29 mg/ml glutamine, 100 unit penicillin and 100 μg/ml streptomycin. For both the P. berghei-luciferase and HepG2 cytotoxicity assays, 3×10^3 of the HepG2-A16-CD81EGFP cells in 5 μl of assay medium (DMEM without Phenol Red (Life Technologies, Calif.), 5% FBS, and 5× Pen Strep Glutamine (Life Technologies, Calif.)) at concentration 6×10^5 cells/ml were seeded in 1536-well plates (Greiner BioOne white solid bottom custom GNF mold) 20-26 hours prior to the actual infection. 18 hours prior to infection, 50 nl of compound in DMSO (0.5% final DMSO concentration per well) were transferred with Acoustic Transfer System (ATS) (Biosero) into the assay plates. Atovaquone (12-point serial dilution starting at 10 μM) and Puromycin (12-point serial dilution starting at 10 μM) were used as positive controls for Pb. liver stage assay and HepG2 cytotoxicity respectively. 0.5% DMSO was used as negative control for the both assays.
An. stephensi mosquitoes, infected with P. berghei-luciferase, were provided by the New York University Insectary. P. berghei-luciferase sporozoites were freshly dissected from the infected A. stephensi mosquito salivary glands, filtered twice through a 20 μm nylon net filter using Steriflip Vacuum-Driven Filtration System (Millipore), counted in a hemocytometer, and then adjusted to final concentration 200 sporozoites per μl in the assay media. […] The HepG2-A16-CD81EGFP cell designated for toxicity studies were left uninfected, with 5 ul of additional assay media added to each well to maintain equal concentrations of compounds with P. berghei-luciferase infected plates. After incubation at 37° C. for 48 hours the exoerythrocytic growth and HepG2-A16-CD81EGFP cell viability were quantified by a bioluminescence measurement.
The HepG2 cytotoxicity was assessed by removing the media through an inverted spin of the plates at 150 g for 30 s and addition of 2 μL of CellTiterGlo reagent (Promega diluted 1:2 with deionized water) per well using the MicroFlo liquid handler (BioTek). Immediately after addition of the luminescence reagent, the plates were vortexed for 10 s and read with an EnVision Multilabel reader (PerkinElmer). IC50 values were obtained as above.

Where [3] appears, read: Plasmodium falciparum, DD2, 72 h.

Take `CCCCCC(=O)N[C@@H](Cc1c[nH]c2ccccc12)C(=O)N[C@@H](CCCC)C(=O)N[C@@H](CC(C)C)C(=O)[C@@]1(C)CO1` [Analog 6, (S)-2-((S)-2-hexanamido-3-(1H-indol-3-yl)propanamido)-N—((S)-4-methyl-1-((R)-2-methyloxiran-2-yl)-1-oxopentan-2-yl)hexanamide]: the “Selectivity Index” value in experiment [1] is 1.05. In addition, the 50% inhibitory concentration (IC50) in experiment [1] (setting [3]) was found to be 0.00311 ± 2.6e-05 µM; in experiment [2], 0.00327 ± 0.00129 µM.
On to `CCCCCC(=O)NC(Cc1ccc(NC(=O)OC(C)(C)C)cc1)C(=O)N[C@@H](Cc1ccc(NC(=O)OC(C)(C)C)cc1)C(=O)N[C@@H](Cc1ccccc1)C(=O)[C@@]1(C)CO1` (stereo in doubt) [Analog 15, tert-butyl (4-((R)-3-(((S)-3-(4-((tert-butoxycarbonyl)amino)phenyl)-1-(((S)-1-((R)-2-methyloxiran-2-yl)-1-oxo-3-phenylpropan-2-yl)amino)-1-oxopropan-2-yl)amino)-2-hexanamido-3-oxopropyl)phenyl)carbamate], for which, in experiment [1], the “Selectivity Index” value amounted to 3.75. The IC50 in experiment [1] (setting [3]) turned out to be 0.0122 ± 0.00383 µM; in experiment [2], 0.0457 ± 0.0157 µM.
Turning to `CCCCCC(=O)N[C@H](Cc1c[nH]c2ccccc12)C(=O)N[C@@H](CCCC)C(=O)N[C@@H](CC(C)C)C(=O)[C@@]1(C)CO1` [Analog 19, (S)-2-((R)-2-hexanamido-3-(1H-indol-3-yl)propanamido)-N—((S)-4-methyl-1-((R)-2-methyloxiran-2-yl)-1-oxopentan-2-yl)hexanamide], in experiment [1] (D-amino acid at P3 in place of L-Val of analog 1, comparator not stated), the increase in selectivity is given as 100 fold. Moreover, the “Selectivity Index” value in experiment [1] worked out at 313.36. Besides, the IC50 in experiment [1] (setting [3]) worked out at 0.00292 ± 0.000403 µM; in experiment [2], 0.915 ± 0.289 µM.
As for `CCCCCC(=O)N[C@@H](Cc1c[nH]c2ccccc12)C(=O)N[C@@H](Cc1c[nH]c2ccccc12)C(=O)N[C@@H](Cc1ccccc1)C(=O)[C@@]1(C)CO1` [Analog 17, N—((S)-1-(((S)-3-(1H-indol-3-yl)-1-(((S)-1-((R)-2-methyloxiran-2-yl)-1-oxo-3-phenylpropan-2-yl)amino)-1-oxopropan-2-yl)amino)-3-(1H-indol-3-yl)-1-oxopropan-2-yl)hexanamide], in experiment [1], the “Selectivity Index” value came to 36.89. The IC50 in experiment [1] (setting [3]) turned out to be 0.00938 ± 0.000667 µM; in experiment [2], 0.346 ± 0.0862 µM.
`CCCCCC(=O)NC(Cc1ccc(N)cc1)C(=O)N[C@@H](Cc1ccc(N)cc1)C(=O)N[C@@H](Cc1ccccc1)C(=O)[C@@]1(C)CO1` (stereo in doubt) [Analog 13, N—((R)-3-(4-aminophenyl)-1-(((S)-3-(4-aminophenyl)-1-(((S)-1-((R)-2-methyloxiran-2-yl)-1-oxo-3-phenylpropan-2-yl)amino)-1-oxopropan-2-yl)amino)-1-oxopropan-2-yl)hexanamide]: the “Selectivity Index” value in experiment [1] is reported as 13.96. Also, the results for the IC50 in experiment [1] (setting [3]) and in experiment [2] were 0.0682 ± 0.0154 µM and 0.952 ± 0.275 µM, respectively.
In the case of `CCCCCC(=O)N[C@@H](Cc1ccc(NC(=O)OC(C)(C)C)cc1)C(=O)N[C@@H](CCCC)C(=O)N[C@@H](CC(C)C)C(=O)[C@@]1(C)CO1` [Analog 5, tert-butyl (4-((S)-2-hexanamido-3-(((S)-1-(((S)-4-methyl-1-((R)-2-methyloxiran-2-yl)-1-oxopentan-2-yl)amino)-1-oxohexan-2-yl)amino)-3-oxopropyl)phenyl)carbamate], in experiment [1], the “Selectivity Index” value was 14.45. Further, the IC50 in experiment [1] (setting [3]) amounted to 0.00555 ± 0.00023 µM; in experiment [2] it was 0.0802 ± 0.0265 µM.
For the compound `CCCCCC(=O)N[C@@H](Cc1ccncc1)C(=O)N[C@@H](CCCC)C(=O)N[C@@H](CC(C)C)C(=O)[C@@]1(C)CO1` [Analog 3, (S)-2-((S)-2-hexanamido-3-(pyridin-4-yl)propanamido)-N—((S)-4-methyl-1-((R)-2-methyloxiran-2-yl)-1-oxopentan-2-yl)hexanamide], in experiment [1] (listed as 3), the “Selectivity Index” value turned out to be 0.09 and the IC50 came to 0.00328 ± 0.000674 µM. The same compound displayed an IC50 in experiment [2] of under 0.000283 µM.
With `CCCCCC(=O)N[C@@H](Cc1ccccc1)C(=O)N[C@@H](CCCC)C(=O)N[C@@H](Cc1ccccc1)C(=O)[C@@]1(C)CO1` [Analog 7, (S)-2-((S)-2-hexanamido-3-phenylpropanamido)-N—((S)-1-((R)-2-methyloxiran-2-yl)-1-oxo-3-phenylpropan-2-yl)hexanamide], in experiment [1], the “Selectivity Index” value was determined as 4.60. The IC50 in experiment [1] (setting [3]) turned out to be 0.0067 ± 0.000451 µM; in experiment [2], 0.0308 ± 0.0137 µM.
Consider `CCCCCC(=O)NC(Cc1ccc(NC(=O)OC(C)(C)C)cc1)C(=O)N[C@@H](Cc1ccc(NC(=O)OC(C)(C)C)cc1)C(=O)N[C@@H](CC(C)C)C(=O)[C@@]1(C)CO1` (stereo in doubt) [Analog 14, tert-butyl (4-((R)-3-(((S)-3-(4-((tert-butoxycarbonyl)amino)phenyl)-1-(((S)-4-methyl-1-((R)-2-methyloxiran-2-yl)-1-oxopentan-2-yl)amino)-1-oxopropan-2-yl)amino)-2-hexanamido-3-oxopropyl)phenyl)carbamate], for which the “Selectivity Index” value in experiment [1] turned out to be 8.74. Besides, the IC50 worked out at 0.0135 ± 0.00469 µM in experiment [1] (setting [3]) and 0.118 ± 0.0217 µM in experiment [2].
With `CCCCCC(=O)N[C@@H](Cc1c[nH]c2ccccc12)C(=O)N[C@@H](Cc1c[nH]c2ccccc12)C(=O)N[C@@H](CC(C)C)C(=O)[C@@]1(C)CO1` [Analog 16, N—((S)-1-(((S)-3-(1H-indol-3-yl)-1-(((S)-4-methyl-1-((R)-2-methyloxiran-2-yl)-1-oxopentan-2-yl)amino)-1-oxopropan-2-yl)amino)-3-(1H-indol-3-yl)-1-oxopropan-2-yl)hexanamide], the “Selectivity Index” value in experiment [1] worked out at 3.16. Moreover, the results for the IC50 in experiment [1] (setting [3]) and in experiment [2] were 0.0037 ± 0.000144 µM and 0.0117 ± 0.00332 µM, respectively.
For `CCCCCC(=O)N[C@@H](Cc1ccc(NC(=O)OC(C)(C)C)cc1)C(=O)N[C@@H](CCCC)C(=O)N[C@@H](Cc1ccccc1)C(=O)[C@@]1(C)CO1` [Analog 10, tert-butyl (4-((S)-2-hexanamido-3-(((S)-1-(((S)-1-((R)-2-methyloxiran-2-yl)-1-oxo-3-phenylpropan-2-yl)amino)-1-oxohexan-2-yl)amino)-3-oxopropyl)phenyl)carbamate], in that order: 87.71, 0.00545 ± 0.00249 µM and 0.478 ± 0.126 µM.
On to `CCCCCC(=O)NC(Cc1ccc(N)cc1)C(=O)N[C@@H](Cc1ccc(N)cc1)C(=O)N[C@@H](CC(C)C)C(=O)[C@@]1(C)CO1` (stereo in doubt) [Analog 12, N—((R)-3-(4-aminophenyl)-1-(((S)-3-(4-aminophenyl)-1-(((S)-4-methyl-1-((R)-2-methyloxiran-2-yl)-1-oxopentan-2-yl)amino)-1-oxopropan-2-yl)amino)-1-oxopropan-2-yl)hexanamide], for which, in experiment [1], the “Selectivity Index” value is 0.02. Besides, the IC50 is 0.0596 ± 0.0154 µM in experiment [1] (setting [3]) and 0.00091 ± 0.00025 µM in experiment [2].
On to `CCCCCC(=O)N[C@@H](Cc1ccccc1)C(=O)N[C@@H](CCCC)C(=O)N[C@@H](CC(C)C)C(=O)[C@@]1(C)CO1` [Analog 2, (S)-2-((S)-2-hexanamido-3-phenylpropanamido)-N—((S)-4-methyl-1-((R)-2-methyloxiran-2-yl)-1-oxopentan-2-yl)hexanamide], for which, in experiment [1], the “Selectivity Index” value was 5.62. Moreover, the IC50 in experiment [1] (setting [3]) was found to be 0.00404 ± 0.000759 µM; in experiment [2], 0.0227 ± 0.00842 µM.
In the case of `CCCCCC(=O)N[C@@H](Cc1ccncc1)C(=O)N[C@@H](CCCC)C(=O)N[C@@H](CC(C)C)C(=O)[C@@]1(C)CO1` [Analog 20], in experiment [1] (listed as 20), the “Selectivity Index” value was 0.01 and inhibition was half-maximal at 0.0218 ± 0.00367 µM (IC50).
